Measured values from patent publication US5849753A, “Pyridyl imidazole derivatives and processes for the preparation thereof” (Korea Research Institute of Chemical Technology, priority 1994, dated 1998).

Columns and labels:
unanesthetized dogs = experiment: Blood pressure lowering effect in unanesthetized dogs (furosemide treated); type: in vivo, dog; set-up: Maximum blood pressure lowering effect in a dog: unit not given here; conditions: oral; for Blood pressure variation with time: dogs, 1.0 mg
Experimental: A number of dogs were fed freely in a feeding room and those weighing 7 to 12 kg in good health were selected regardless of their gender.
(§1) The test dogs were anesthetized with 30 mg/kg of pentobarbital sodium by intravenous injection and the left femoral artery and femoral vein were separated carefully. Silicone catheter, specially prepared and filled with saline treated with heparin(1,000 IU/ml), was cannulated into the blood vessels. After the surgery, the dogs were constrained to measure their blood pressure continuously with Gould 2000 physiograph adapted to a Grass P23 XL pressure transducer; and their heart rates were monitored with ECG/Biotacho amplifier. The dogs were tested at least 2 days after the surgery.
(§2) 10 mg/kg of furosemide was injected intramuscularly 18 hours(in case of intravenous injection, 2 hours) before the beginning of the test (administration of the test compound) to improve the activity of renin in blood plasma. After the injection of furosemide, neither food nor water was provided. The test compound was suspended in Tween 80 and administered in an amount of 20 mg/kg orally. The blood pressure and heart rate were measured up to 8 hours after the administration of each test compound.
The maximum blood pressure lowering effect of the present compounds and the control compounds were determined in different amounts of administration using the same method as […]

[1] = tested on: furosemide-administered dogs; experiment: Duration of action in furosemide-administered dogs; type: in vivo, dog; conditions: for blood pressure lowering effect with time: 1 mg, per os
Experimental: as §1
as §2, with “The test compound was suspended in Tween 80 and administered in an amount of 20 mg/kg orally.” left out
The compound of Example 8 and the Merck compound were administered orally to the furosemide-administrated dogs as in test 3(i), and blood pressure lowering effect was measured with time.

renal hypertensive rat = experiment: Blood pressure lowering effect in renal hypertension (renal hypertensive rats, intravenous or oral); type: in vivo, male Sprague-Dawley rats; conditions: 3 mg, read-out: Maxium Blood Pressure Lowering Effect(%)
In short: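 Renal hypertension induced in male Sprague-Dawley rats by complete left renal artery ligation at 4 weeks of age; rats with systolic pressure above 180 mmHg at 6–8 days were used. Compounds given i.v. (in 0.05N KOH) or p.o. (Tween 80 suspension); blood pressure and heart rate recorded via carotid catheter up to 24 h, compared with losartan.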

SMILES: CCCCc1nc2cc(-c3ccccn3)c(C(OC)OC)nc2n1Cc1ccc(-c2ccccc2-c2nnn[nH]2)cc1 [Example 8, 2-butyl-5-dimethoxymethyl-6-(pyridin-2-yl)-3-[2'-(1H-tetrazol-5-yl)-biphenyl-4-ylmethyl]-3H-imidazo[4,5-b]pyridine]
- Maximum blood pressure lowering effect in a dog (unanesthetized dogs; 0.1 mg/kg): 17
- Maximum blood pressure lowering effect in a dog (unanesthetized dogs; 0.3 mg/kg): 32
- Maximum blood pressure lowering effect in a dog (unanesthetized dogs; 1 mg/kg): 34
- Blood pressure variation with time (unanesthetized dogs; 0.5 hr): -32.7%
- Blood pressure variation with time (unanesthetized dogs; 1 hr): -29.9%
- Blood pressure variation with time (unanesthetized dogs; 2 hr): -33.0%
- Blood pressure variation with time (unanesthetized dogs; 4 hr): -26.8%
- Blood pressure variation with time (unanesthetized dogs; 6 hr): -25.0%
- Blood pressure variation with time (unanesthetized dogs; 8 hr): -19.7%
- blood pressure lowering effect with time ([1]; 0 min): 0%
- blood pressure lowering effect with time ([1]; 10 min): 0%
- blood pressure lowering effect with time ([1]; 20 min): -8%
- blood pressure lowering effect with time ([1]; 30 min): -16.2%
- blood pressure lowering effect with time ([1]; 60 min): -23.8%
- blood pressure lowering effect with time ([1]; 90 min): -26.0%
- blood pressure lowering effect with time ([1]; 120 min): -30.0%
- blood pressure lowering effect with time ([1]; 150 min): -31.7%
- blood pressure lowering effect with time ([1]; 180 min): -31.7%
- blood pressure lowering effect with time ([1]; 210 min): -31.2%
- blood pressure lowering effect with time ([1]; 240 min): -32.7%
- blood pressure lowering effect with time ([1]; 270 min): -33.9%
- blood pressure lowering effect with time ([1]; 300 min): -34.9%
- blood pressure lowering effect with time ([1]; 330 min): -37.0%
- blood pressure lowering effect with time ([1]; 360 min): -35.5%
- blood pressure lowering effect with time ([1]; 390 min): -36.4%
- blood pressure lowering effect with time ([1]; 420 min): -34.9%
- blood pressure lowering effect with time ([1]; 450 min): -33.0%
- blood pressure lowering effect with time ([1]; 480 min): -33.0%
- maximum blood pressure lowering effect lasted up to (after the administration) ([1]; furosemide-administered dogs, oral, as shown in Table 6): up to 8 hours
- change in vivo at 3 mg (renal hypertensive rat): -50%
